Assay results from the supplement of paper PMC10331698.
± gives the standard deviation of the averaged measurements.

Experiments:
Assay in all cases: LOEC (log10 uM (lowest observed effect concentration))
[1] = compound: FC(F)(I)C(F)(F)C(F)(F)C(F)(F)C(F)(F)C(F)(F)I [1,6-Diiodoperfluorohexane]
Procedure: (§1)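 BioMAP Diversity Plus panel in human primary cell co-cultures, 4 concentrations in duplicate blinded samples. Responses are log10 fold change versus DMSO control, processed with tcpl v2.1.0. A hit is called when responses at any concentration exceed the cutoff (the larger of 3*bmad or log10(1.2)); the lowest observed effect concentration (modl_ga, log10 uM) is reported for hits.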

[2] = compound: C=CC(=O)OCC(F)(F)C(F)(F)C(F)(F)C(F)(F)COC(=O)C=C [1H,1H,6H,6H-Perfluorohexane-1,6-diol diacrylate]
Procedure: as §1

[3] = compound: OCC(F)(F)C(F)(F)C(F)(F)C(F)(F)C(F)(F)C(F)(F)C(F)(F)C(F)(F)C(F)(F)C(F)(F)C(F)(F)F [11:1 Fluorotelomer alcohol]
Procedure: as §1

[4] = compound: Cc1ccc(S(=O)(=O)OCC(F)(F)C(F)(F)C(F)(F)C(F)(F)C(F)(F)C(F)F)cc1 [1H,1H,7H-Perfluoroheptyl 4-methylbenzenesulfonate]
Procedure: as §1

[5] = compound: O=C(CC(=O)C(F)(F)C(F)(F)C(F)(F)F)c1cccs1 [(Perfluorobutyryl)-2-thenoylmethane]
Procedure: as §1

Perfluoropinacol = compound: OC(C(F)(F)F)(C(F)(F)F)C(O)(C(F)(F)F)C(F)(F)F [Perfluoropinacol]
Procedure: as §1

[6] = compound: OCCC(F)(F)C(F)(F)C(F)(F)C(F)(F)C(F)(F)C(F)(F)C(F)(F)C(F)(F)F [8:2 Fluorotelomer alcohol]
Procedure: as §1

[7] = compound: OCCCC(F)(F)C(F)(F)C(F)(F)C(F)(F)C(F)(F)C(F)(F)C(F)(F)C(F)(F)F [3-(Perfluorooctyl)propanol]
Procedure: as §1

[8] = compound: O=C(O)C(F)(F)C(F)(F)C(F)(F)C(F)(F)C(F)(F)C(F)(F)C(F)(F)F [Ammonium perfluorooctanoate]
Procedure: as §1

Perfluorooctanoic acid = compound: O=C(O)C(F)(F)C(F)(F)C(F)(F)C(F)(F)C(F)(F)C(F)(F)C(F)(F)F [Perfluorooctanoic acid]
Procedure: as §1

[9] = compound: OCC(F)(F)C(F)(F)C(F)(F)C(F)(F)C(F)(F)C(F)(F)F [6:1 Fluorotelomer alcohol]
Procedure: as §1

[10] = compound: OCC(F)(F)C(F)(F)C(F)(F)C(F)(F)C(F)(F)C(F)(F)C(F)(F)C(F)(F)CO [1H,1H,10H,10H-Perfluorodecane-1,10-diol]
Procedure: as §1

[11] = compound: C=CC(=O)OCC(F)(F)C(F)(F)C(F)(F)C(F)(F)C(F)(F)C(F)(F)C(F)(F)C(F)F [1H,1H,9H-Perfluorononyl acrylate]
Procedure: as §1

[12] = compound: FC(F)(F)C(F)(F)C(F)(F)C(F)(F)CCI [1H,1H,2H,2H-Perfluorohexyl iodide]
Procedure: as §1

[13] = compound: O=S(=O)(OCC(F)(F)F)C(F)(F)C(F)(F)C(F)(F)C(F)(F)F [2,2,2-Trifluoroethyl perfluorobutanesulfonate]
Procedure: as §1

Methotrexate = compound: CN(Cc1cnc2nc(N)nc(N)c2n1)c1ccc(C(=O)N[C@@H](CCC(=O)O)C(=O)O)cc1 [Methotrexate]
Procedure: as §1

Test System | LOEC (log10 uM) [1] | LOEC (log10 uM) [2] | LOEC (log10 uM) [3] | LOEC (log10 uM) [4] | LOEC (log10 uM) [5] | LOEC (log10 uM) (Perfluoropinacol) | LOEC (log10 uM) [6] | LOEC (log10 uM) [7] | LOEC (log10 uM) [8] | LOEC (log10 uM) (Perfluorooctanoic acid) | LOEC (log10 uM) [9] | LOEC (log10 uM) [10] | LOEC (log10 uM) [11] | LOEC (log10 uM) [12] | LOEC (log10 uM) [13] | LOEC (log10 uM) (Methotrexate)
3C SRB down | 1.3 | 1.3 | -0.222 | 1.78 | 1.3 | 1.3 | 1.3 | 1.3 |  |  |  |  |  |  |  | 
IMphg IL8 up |  |  |  |  | 1.78 | 1.07 ± 0.32 | 1.78 |  | 1.78 | 1.78 |  |  |  |  |  | 
4H Pselectin down | 1.3 | 1.07 ± 0.32 |  |  | 1.3 | 1.3 | 1.3 | 1.3 |  |  | 1.78 |  |  |  |  | 
BF4T MCP1 down | 0.845 | 1.3 |  | 1.3 | 1.07 ± 0.32 | 1.78 | 1.3 | 1.3 |  |  |  | 1.07 ± 0.32 |  |  |  | 
BE3C IP10 down | 1.54 ± 0.34 | 1.78 |  |  | 1.3 | 1.3 | 1.07 ± 0.32 | 1.3 | 1.78 | 1.78 |  | 1.3 |  |  |  | 
BT PBMCCytotoxicity up |  |  |  |  |  |  |  |  |  | 1.78 |  |  |  |  |  | 
MyoF CollagenIV up |  |  |  |  |  | 1.3 |  |  | 1.78 | 1.78 |  |  |  |  |  | 
BT PBMCCytotoxicity down | 1.78 | 0.845 | -0.199 ± 0.71 |  | 1.78 | 1.78 | 1.54 ± 0.34 | 1.54 ± 0.34 |  |  |  | 1.78 | 1.3 |  |  | 
hDFCGF ITAC down | 0.845 | 0.301 |  |  | 1.3 | 0.801 ± 0.71 | 1.3 | 0.845 |  |  |  | 1.78 | 1.54 ± 0.34 | 1.78 | 1.78 | 
hDFCGF MCSF down | 0.845 | 0.573 ± 0.39 |  |  |  | 1.3 | 1.3 | 0.845 |  |  | 1.78 | 1.78 | 1.54 ± 0.34 |  |  | 
hDFCGF VCAM1 down | 0.845 | 0.301 |  |  |  | 1.3 | 1.3 | 0.845 |  |  | 1.78 | 1.54 ± 0.34 | 1.3 | 1.78 |  | 
BT Bcell Proliferation down | 1.54 ± 0.34 | 0.845 | -0.96 ± 0.37 |  | 1.3 | 1.54 ± 0.34 | 1.78 | 1.3 |  |  |  | 1.78 | 1.78 |  |  | 0
BT Bcell Proliferation up |  |  |  |  |  |  |  |  |  | 1.78 |  |  |  |  |  | 
LPS IL8 up |  |  |  |  |  |  |  |  |  | 1.78 |  |  |  |  |  | 
LPS TNFa down | 1.3 | 1.3 |  |  |  |  | 1.78 | 0.573 ± 0.39 |  |  |  |  |  |  | 1.78 | 
BE3C MIG down | 1.78 | 1.78 |  |  | 1.3 | 1.78 | 1.54 ± 0.34 | 1.78 |  |  | 1.78 | 1.78 |  |  |  | 
hDFCGF CollagenIII down | 0.845 |  |  |  | 1.3 | 1.78 | 1.3 | 1.3 | 1.78 |  | 1.31 ± 0.66 | 1.78 |  |  |  | 
CASM3C Proliferation down | 0.845 | 1.3 |  |  | 0.801 ± 0.71 | 1.3 | 1.3 | 1.3 |  |  | 1.78 | 1.78 |  |  |  | 
hDFCGF TIMP2 down |  | 1.07 ± 0.32 |  |  | 1.07 ± 0.32 | 1.3 | 0.801 ± 0.71 | 1.3 |  |  |  |  |  | 1.78 |  | 
3C Proliferation down | 1.3 | 0.573 ± 0.39 | -0.96 ± 0.37 |  | 0.845 | 0.845 | 1.3 | 0.845 |  |  | 1.78 | 1.04 ± 1 | 1.3 |  |  | 
SAg Proliferation down | 1.3 | 0.845 | -0.96 ± 0.37 |  | 0.845 | 1.3 | 1.3 | 1.3 |  |  |  |  | 1.3 | 1.78 |  | 0.477
